Measurements: PubChem BioAssay AID434987 (Southern Research Specialized Biocontainment Screening …, 2010)
Activity calls are given as the source filed them. No rule for the calls is given here.

System: M. tuberculosis H37Rv growth inhibition with meropenem
Test: dose response, H37Rv, with and without meropenem (AID 434987);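 also: growth over 7 days at 37 °C before Alamar Blue read on day 9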
[1] = M. tuberculosis H37Rv growth inhibition, measured here: IC50 without meropenem
[2] = M. tuberculosis H37Rv growth inhibition, measured here: IC90 without meropenem
[3] = measured here: IC90 with meropenem

Compound | IC50 | IC50 [1] [µM] | IC90 [2] [µM] | IC90 [3] [µM]
CC(=O)COc1ccc2c3c(c(=O)oc2c1C)CCCCC3 | > 100 µM (inactive) | > 100 | > 100 | > 100
C[C@H](NC(=O)c1[nH]cnc1C(=O)Nc1cccc(Cl)c1)c1ccccc1 | 3.59 µM | > 100 | > 100 | > 100
CN1C/C(=N\S(=O)(=O)c2ccccc2)N(C)C1=O | 13 µM (inactive) | 23.6 | 46.7 | 33.7
Cc1cccc(NC(=O)Cn2c(=O)n(Cc3ccccc3)c(=O)c3c(C)c(C)sc32)c1 | > 100 µM (inactive) | > 100 | > 100 | > 100
NS(=O)(=O)c1cccnc1Nc1c(Cl)cccc1Cl | > 100 µM (inactive) | > 100 | > 100 | > 100
O=C(CSc1nnc(-c2ccncc2)o1)c1cccc([N+](=O)[O-])c1 | 31.6 µM (inactive) | 46.9 | > 100 | 45.4
O=C(Nc1ccc(C(F)(F)F)cc1)c1cc(-c2cccnc2)nc2ccc(Br)cc12 | > 100 µM (inactive) | > 100 | > 100 | > 100
CCCC(=O)N1CCN(c2ccc(NC(=S)NC(=O)CC)cc2)CC1 | 62.1 µM (inactive) | > 100 | > 100 | > 100
COc1cc(/C=C/C(=O)OCC(=O)Nc2ccc(Cl)cn2)ccc1O | 39.4 µM | > 100 | > 100 | > 100
CC1CCc2c(sc(NC(=O)CCCn3cnc([N+](=O)[O-])n3)c2C(N)=O)C1 (configuration not stated) | 12.8 µM | 32.7 | > 100 | 90.4
Cc1ccc(C(=O)OCCN2CCN(c3ncc(C(F)(F)F)cc3Cl)CC2)cc1 | > 100 µM (inactive) | > 100 | > 100 | > 100
COc1ccccc1N1CCN(S(=O)(=O)c2ccc3nc(-c4ccccc4)[nH]c3c2)CC1 | > 100 µM (inactive) | > 100 | > 100 | > 100
Cc1cccc(C)c1-n1c(C)cc(/C=C2\C(=O)NN(c3ccccc3)C2=O)c1C | > 100 µM (inactive) | > 100 | > 100 | > 100
CCCCNC(=O)c1onc(CSc2ccccc2C)c1C(=O)O | 45.3 µM (inactive) | 81.1 | > 100 | 50.6
Cc1cc2ccccn2c1C(=O)c1ccc([N+](=O)[O-])o1 | > 100 µM (inactive) | > 100 | > 100 | > 100
O=C(Cc1ccc(Cl)cc1Cl)Nc1ccc(OC(F)F)c(Cl)c1 | 12.1 µM | > 100 | > 100 | 13.7
CSc1ccc(/C=C/C(=O)Nc2ccccc2)cc1 | > 100 µM (inactive) | > 100 | > 100 | > 100
C=CCN=c1scc(-c2ccc(F)cc2)n1/N=C/c1ccccn1 | 33 µM | 92.8 | > 100 | 71.7
C=CCN(C(=O)CN1CCOCC1)c1nc(C)c(-c2ccccc2)s1 | > 100 µM (inactive) | > 100 | > 100 | > 100
NNC(=O)c1cccc(O)c1 | 9.97 µM | 79.5 | > 100 | 73.9
CCOC(=O)N1CCN(C(=O)CSc2nnc(COc3ccccc3)o2)CC1 | 7.33 µM | 21.5 | 72.9 | 18.4
Cc1ccc(C)c(SCc2noc(C(=O)NCC3CCCO3)c2C(=O)O)c1 (configuration not stated) | 44.3 µM (inactive) | 50.7 | > 100 | 48
CC1CCCC(NC(=O)COC(=O)c2cccc(NS(=O)(=O)/C=C/c3ccccc3)c2)C1C (configuration not stated) | > 100 µM (inactive) | > 100 | > 100 | > 100
